Tested on: 777334-354-R2-J4-PDC tumor spheroids with HUVEC/MSC, viability
Test: Anticancer human tumor 777334-354-R2-J4-PDC patient-derived pancreatic adenocarcinoma cell line growth inhibition [GQUAD]
Conditions: for IC50: curve of first compound; for viability, T/C: stronger effect = lower value
Source text: DNA G-quadruplex Stabilizer Agents in Combinations in Complex Spheroids
A high-throughput screen of multi-cell type tumor spheroids was designed to identify active combinations of DNA G-quadruplex stabilizer agents and targeted small molecules. Complex spheroids include a stromal component modeled by human endothelial cells (HUVEC) and fibroblasts modeled by human mesenchymal stem cells (MSCs). The concentration ranges selected for each drug and investigational agent were based upon clinically achievable concentrations if the clinical Cmax of the agent was known.
Compounds. The drugs and investigational agents: pidnarulex (CX-5461; NSC782164), APTO-253 (NSC789042), BRACO-19 (NSC847499), peposertib (NSC802822), ceralasertib (NSC780249), elimusertib (NSC800525), camonsertib (NSC841442), AZD-1390 (NSC803789), olaparib (NSC753686), talazoparib (NSC767125), ART-558 (NSC835418), sotorasib (NSC818433), MRTX-1133 (NSC836407), SN-38 (NSC673596), topotecan (NSC609699), etoposide (NSC141540), doxorubicin (NSC123127), gemcitabine (NSC613327), 5-fluorouracil (NSC19893), paclitaxel (NSC125973), vemurafenib (NSC761431), panobinostat (NSC761190), R-306465 (JNJ-16241199; NSC773264), adavosertib (NSC754352), TP-3654 (NSC805149), carboplatin (NSC241240), KSQ-4279 (NSC840948), and staurosporine (NSC755774) were obtained from the National Cancer Institute (NCI) Developmental Therapeutics Program Chemical Repository (34). The FDA-approved anticancer drug set is available from the NCI Developmental Therapeutics Program. […] The stock solutions were prepared in dimethyl sulfoxide (DMSO, Sigma-Aldrich, St. Louis, MO, cat. D2650) at 800-fold the tested concentration and stored at -70 degrees C prior to their use. All drugs and investigational agents were tested over a range starting from a high concentration at or near the clinical Cmax and decreasing in half-log increments. If the clinical Cmax for an agent had not been determined, the highest concentration tested was 10 microM.
2.3 Cell Culture. All cells were maintained in an incubator at 37 degrees C and 5% CO2 with 95% humidity. The PDC lines were cultured according to standard operating procedures established by the NCI PDMR. All PDCs were thawed and cultured in Matrigel-coated flasks prepared with a working solution of 1X Ham's F-12 nutrient mix, without supplementation (Invitrogen, cat. 11765054), 100 U/mL penicillin-streptomycin (Invitrogen, cat. 15140122), and 2.5% Matrigel (Corning Inc., cat. 354248) for the first three passages. The 857933-349-R-J2-PDC line was cultured in 6C/Colon 1B media, which includes advanced DMEM/F-12 (Thermo Fisher Scientific, cat. 12634028), 10 mM HEPES (Thermo Fisher Scientific, cat. 15630080), 1X GlutaMAX supplement (Thermo Fisher Scientific, cat. 35050061), 0.1 mg/mL primocin (InvivoGen, cat. ant-pm-2), 10% defined fetal bovine serum, heat inactivated (HyClone Laboratories Inc., cat. SH30070.03HI), 50% L-WRN conditioned media (ATCC, cat. CRL-3276), 1.25 mM N-Acetyl-L-cysteine (Sigma-Aldrich, cat. A9165), 10 mM nicotinamide (Sigma-Aldrich, cat. N0636), 1X B-27 supplement (Thermo Fisher Scientific, cat. 17504044), 1X N-2 supplement (Thermo Fisher Scientific, cat. 17502048), 10 microM Y-27632 dihydrochloride (Tocris Bioscience, cat. 1254), and 50 ng/mL human EGF recombinant protein (Thermo Fisher Scientific, cat. PHG0311). The 485176-168-R4-J1-PDC line was cultured in Panc media, which includes all 6C/Colon 1B media components plus 100 ng/mL human FGF-10 (Thermo Fisher Scientific, cat. 100-26), 500 nM SB-431542 (Selleckchem, cat. S1067), and gastrin (Tocris, cat. 3006).
[…]

[1] = second compound 0.0316 µM, first compound 0.0316 µM
[2] = second compound 0.0316 µM, first compound 0.316 µM
[3] = second compound 0.1 µM, first compound 0.0316 µM
[4] = second compound 0.1 µM, first compound 0.316 µM
[5] = second compound 0.316 µM, first compound 0.0316 µM
[6] = second compound 0.316 µM, first compound 0.316 µM
[7] = second compound 1 µM, first compound 0.0316 µM
[8] = second compound 1 µM, first compound 0.316 µM
[9] = second compound 3.16 µM, first compound 0.0316 µM
[10] = second compound 3.16 µM, first compound 0.316 µM
[11] = second compound 10 µM, first compound 0.0316 µM
[12] = second compound 10 µM, first compound 0.316 µM
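Further: spheroids exposed to compounds for 7 days before readout.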

Question: With `Cc1[nH]c2ccccc2c1CCNCc1ccc(/C=C/C(=O)NO)cc1` + CN(C)c1ccc(Nc2c3ccc(NC(=O)CCN4CCCC4)cc3nc3cc(NC(=O)CCN4CCCC4)ccc23)cc1 as the compound, how does the IC50 (second compound 0.0316 µM) read?
Answer: 202 nM

Question: What about the IC50 (second compound 0.1 µM) of the same compound?
Answer: 185 nM

Question: And the IC50 (second compound 0.316 µM)?
Answer: 220 nM

Question: What about the IC50 (second compound 1 µM) of the same compound?
Answer: 214 nM

Question: What about the IC50 (second compound 3.16 µM) of the same compound?
Answer: 175 nM

Question: And the IC50 (second compound 10 µM)?
Answer: 104 nM

Question: And the viability, T/C (second compound 0.0316 µM, first compound 0.000999 µM)?
Answer: 104%

Question: And the viability, T/C (second compound 0.0316 µM, first compound 0.00316 µM)?
Answer: 83.1%

Question: What about the viability, T/C (second compound 0.0316 µM, first compound 0.00999 µM) of the same compound?
Answer: 97.8%

Question: What about the viability, T/C [1] of the same compound?
Answer: 90.5%

Question: And the viability, T/C (second compound 0.0316 µM, first compound 0.0999 µM)?
Answer: 75.8%

Question: What about the viability, T/C [2] of the same compound?
Answer: 33.4%

Question: And the viability, T/C (second compound 0.1 µM, first compound 0.000999 µM)?
Answer: 108%

Question: What about the viability, T/C (second compound 0.1 µM, first compound 0.00316 µM) of the same compound?
Answer: 84.8%

Question: And the viability, T/C (second compound 0.1 µM, first compound 0.00999 µM)?
Answer: 103%

Question: What about the viability, T/C [3] of the same compound?
Answer: 86.2%

Question: And the viability, T/C (second compound 0.1 µM, first compound 0.0999 µM)?
Answer: 73.2%

Question: And the viability, T/C [4]?
Answer: 30.8%

Question: What about the viability, T/C (second compound 0.316 µM, first compound 0.000999 µM) of the same compound?
Answer: 92.3%

Question: And the viability, T/C (second compound 0.316 µM, first compound 0.00316 µM)?
Answer: 88.4%

Question: And the viability, T/C (second compound 0.316 µM, first compound 0.00999 µM)?
Answer: 99.5%

Question: And the viability, T/C [5]?
Answer: 88.9%

Question: What about the viability, T/C (second compound 0.316 µM, first compound 0.0999 µM) of the same compound?
Answer: 79.6%

Question: What about the viability, T/C [6] of the same compound?
Answer: 36.4%

Question: What about the viability, T/C (second compound 1 µM, first compound 0.000999 µM) of the same compound?
Answer: 84.8%

Question: And the viability, T/C (second compound 1 µM, first compound 0.00316 µM)?
Answer: 86.9%

Question: And the viability, T/C (second compound 1 µM, first compound 0.00999 µM)?
Answer: 88.3%

Question: What about the viability, T/C [7] of the same compound?
Answer: 79%

Question: And the viability, T/C (second compound 1 µM, first compound 0.0999 µM)?
Answer: 71.9%

Question: And the viability, T/C [8]?
Answer: 38.9%

Question: And the viability, T/C (second compound 3.16 µM, first compound 0.000999 µM)?
Answer: 90.6%

Question: And the viability, T/C (second compound 3.16 µM, first compound 0.00316 µM)?
Answer: 86.9%

Question: What about the viability, T/C (second compound 3.16 µM, first compound 0.00999 µM) of the same compound?
Answer: 89%

Question: And the viability, T/C [9]?
Answer: 79.5%

Question: What about the viability, T/C (second compound 3.16 µM, first compound 0.0999 µM) of the same compound?
Answer: 66.1%

Question: And the viability, T/C [10]?
Answer: 33.5%

Question: And the viability, T/C (second compound 10 µM, first compound 0.000999 µM)?
Answer: 77%

Question: And the viability, T/C (second compound 10 µM, first compound 0.00316 µM)?
Answer: 80.1%

Question: And the viability, T/C (second compound 10 µM, first compound 0.00999 µM)?
Answer: 80.6%

Question: What about the viability, T/C [11] of the same compound?
Answer: 70.4%

Question: What about the viability, T/C (second compound 10 µM, first compound 0.0999 µM) of the same compound?
Answer: 51.2%

Question: And the viability, T/C [12]?
Answer: 26.4%

Question: For `O=C(c1cc(Cc2n[nH]c(=O)c3ccccc23)ccc1F)N1CCN(C(=O)C2CC2)CC1` + Cc1[nH]c2ccc(F)cc2c1-c1nc2c3cccnc3c3ncccc3c2[nH]1, which IC50 (second compound 0.0316 µM) is on record?
Answer: > 10000 nM

Question: And the IC50 (second compound 0.1 µM)?
Answer: > 10000 nM

Question: What about the IC50 (second compound 0.316 µM) of the same compound?
Answer: > 10000 nM

Question: And the IC50 (second compound 1 µM)?
Answer: > 10000 nM

Question: And the IC50 (second compound 3.16 µM)?
Answer: < 31.6 nM

Question: What about the IC50 (second compound 10 µM) of the same compound?
Answer: < 31.6 nM

Question: And the viability, T/C [1]?
Answer: 95.4%

Question: What about the viability, T/C (second compound 0.0316 µM, first compound 0.1 µM) of the same compound?
Answer: 95.8%

Question: What about the viability, T/C [2] of the same compound?
Answer: 102%

Question: What about the viability, T/C (second compound 0.0316 µM, first compound 1 µM) of the same compound?
Answer: 98.7%

Question: And the viability, T/C (second compound 0.0316 µM, first compound 3.16 µM)?
Answer: 93.6%

Question: What about the viability, T/C (second compound 0.0316 µM, first compound 10 µM) of the same compound?
Answer: 83.1%

Question: And the viability, T/C [3]?
Answer: 98.6%

Question: What about the viability, T/C (second compound 0.1 µM, first compound 0.1 µM) of the same compound?
Answer: 98.9%

Question: What about the viability, T/C [4] of the same compound?
Answer: 99.5%

Question: What about the viability, T/C (second compound 0.1 µM, first compound 1 µM) of the same compound?
Answer: 92.5%

Question: And the viability, T/C (second compound 0.1 µM, first compound 3.16 µM)?
Answer: 103%

Question: And the viability, T/C (second compound 0.1 µM, first compound 10 µM)?
Answer: 78.7%

Question: What about the viability, T/C [5] of the same compound?
Answer: 99.2%

Question: What about the viability, T/C (second compound 0.316 µM, first compound 0.1 µM) of the same compound?
Answer: 98.7%

Question: What about the viability, T/C [6] of the same compound?
Answer: 95.1%

Question: What about the viability, T/C (second compound 0.316 µM, first compound 1 µM) of the same compound?
Answer: 103%

Question: What about the viability, T/C (second compound 0.316 µM, first compound 3.16 µM) of the same compound?
Answer: 106%

Question: And the viability, T/C (second compound 0.316 µM, first compound 10 µM)?
Answer: 76%

Question: What about the viability, T/C [7] of the same compound?
Answer: 75.5%

Question: And the viability, T/C (second compound 1 µM, first compound 0.1 µM)?
Answer: 89.7%

Question: And the viability, T/C [8]?
Answer: 91.6%

Question: What about the viability, T/C (second compound 1 µM, first compound 1 µM) of the same compound?
Answer: 82.9%

Question: What about the viability, T/C (second compound 1 µM, first compound 3.16 µM) of the same compound?
Answer: 89.2%

Question: And the viability, T/C (second compound 1 µM, first compound 10 µM)?
Answer: 82.5%

Question: And the viability, T/C [9]?
Answer: 37.8%

Question: And the viability, T/C (second compound 3.16 µM, first compound 0.1 µM)?
Answer: 39.2%

Question: And the viability, T/C [10]?
Answer: 36.4%

Question: What about the viability, T/C (second compound 3.16 µM, first compound 1 µM) of the same compound?
Answer: 38.2%

Question: What about the viability, T/C (second compound 3.16 µM, first compound 3.16 µM) of the same compound?
Answer: 43%

Question: What about the viability, T/C (second compound 3.16 µM, first compound 10 µM) of the same compound?
Answer: 32.8%

Question: What about the viability, T/C [11] of the same compound?
Answer: 24.9%

Question: And the viability, T/C (second compound 10 µM, first compound 0.1 µM)?
Answer: 35.9%

Question: And the viability, T/C [12]?
Answer: 39%

Question: What about the viability, T/C (second compound 10 µM, first compound 1 µM) of the same compound?
Answer: 33.7%

Question: And the viability, T/C (second compound 10 µM, first compound 3.16 µM)?
Answer: 36.5%

Question: And the viability, T/C (second compound 10 µM, first compound 10 µM)?
Answer: 33%

Reference: PubChem BioAssay AID2060499 (Molecular Pharmacology Branch, DTP, NCI, 2025)
